Measured values: patent publication US20080003215A1, “Use of pre-dissolved pristinamycin-type and polyether ionophore type antimicrobial agents in the production of ethanol” (priority 2006, published 2008)

Columns and labels:
[1] = test system: humans; conditions: cited from earlier work
[2] = test system: Yeast #2; assay: Solvent compatibility with yeast corn mash fermentation, Yeast #2
Description: (§1) Dialkylsulfoxides and alkyl pyrrolidones, where the alkyl groups are independently C1 to C4, are particularly preferred. Dimethylsulfoxide (DMSO) and N-Methyl-2-Pyrrolidone (M-Pyrol or NMP) compatibility with yeast corn mash fermentations were evaluated with two yeasts (Yeast#1 and Yeast#2) commercially used in the fuel ethanol industry. Concentrations of 0 to 1200 ppm of either solvent were added at the beginning of dry-milled corn-mash fermentations along with either yeast.
(§2) Sterile saccharified 26% wt. %/v corn mash was prepared using substantially the same procedure described in Example 2. To each of 6 pre-sterilized Celstir™ fermentors (Wheaton Instruments, Millville, N.J.), 500 g sterile mash was aseptically added. The fermentors were temperature controlled to 32° C. using circulating water baths (Haake D8;G, Berlin, Germany) to pump water through the jackets of the Celstir fermentors. Magnetic stirrers (IKA-Lavortechnik, Staufen, Germany) were used to mix the fermentors at approximately 200 RPM. […] Then, to each fermentator was added 1) 1 ml of 0.2 μm filter-sterilized Urea stock solution (8 mM urea in fermentors); 2) 1 ml filter sterilized aqueous DMSO (Gaylord Chemical, CAS#67-68-5) or aqueous M-Pyrol (ISP, CAS#872-50-) solutions; and 3) 1.027 g Yeast#1 or Yeast#2 commercial active dry yeasts in 18 ml sterile water.
Samples (22 ml) were taken at 0, 6, 12, 24, 36, and 48 h and placed on ice to prevent growth. An 11 ml aliquot of each sample was serially diluted in 0.1% w/v sterile peptone water, and microbiologically plated onto MRS agar plates in duplicate. All plates were incubated for 48 h at 30° C. in an anaerobic CO2 incubation chamber, and manually enumerated for viable Lactobacilli. […] Lactic acid, glycerol, ethanol, acetic acid, and glucose concentrations were determined by HPLC analysis. […] The components were detected by a differential refractometer (Model 4210, Waters Chromatographic Division, Milford, Mass.) and the subsequent data processed by the supplied Waters Millenium32 software. […]

[3] = test system: Yeast #1; assay: Solvent compatibility with yeast corn mash fermentation, Yeast #1; conditions: Yeast #1, corn mash
Description: as §1, §2
Samples (22 ml) were taken at 0, 6, 12, 24, 36, and 48 h and placed on ice to prevent growth. An 11 ml aliquot of each sample was serially diluted in 0.1% w/v sterile peptone water, and microbiologically plated onto MRS agar plates in duplicate. All plates were incubated for 48 h at 30° C. in an anaerobic CO2 incubation chamber, and manually enumerated for viable Lactobacilli. The remaining 11 ml aliquot of each sample was centrifuged (10K RPM, 4° C., 20 minutes) in a Sorvall RC-5C centrifuge. The liquid supernatant was then passed through a 0.2 μm membrane filter to remove any particulates and frozen for future analysis. Lactic acid, glycerol, ethanol, acetic acid, and glucose concentrations were determined by HPLC analysis. The samples were thawed and diluted to the required extent with Milli-Q water. Aliquots of the diluted samples (100 μl) were each mixed with an equal volume of 2% w/v boric acid (internal standard), and injected into a Biorad HPX-87H Aminex™ column equilibrated at 40° C. The eluent was 5 mM sulfuric acid flowing at a rate of 0.7 ml/min. The components were detected by a differential refractometer (Model 4210, Waters Chromatographic Division, Milford, Mass.) and the subsequent data processed by the supplied Waters Millenium32 software. All fermentations were performed in duplicate.

## CCCCOC(=O)C(C)O (stereo not drawn) [n-butyl lactate]
[1]; humans, in air
  Toxic concentration in air: about 4 ppm
[1]; intraperitoneal route
  Toxicity classification: classified as a poison by intraperitoneal route

## CN1CCCC1=O [NMP, N-Methyl-2-Pyrrolidone]
[2]; Yeast #2, corn mash, 1000 ppm solvent, 48 hours (control 10%)
  Ethanol production: 9.1%
[2]; Yeast #2, solvent concentrations >400 ppm
  Ethanol concentration trend: consistent trend towards lower concentrations of ethanol
[3]; 1000 ppm solvent (control 8.1%)
  Ethanol production: 7.8%
[3]; solvent concentrations above 400 ppm
  Yeast viability: slight decline in yeast viability

## C[S+](C)[O-] [DMSO, Dimethylsulfoxide]
[2]; Yeast #2, corn mash, 0 to 1200 ppm solvent
  Yeast performance (viability, glycerol, ethanol): no adverse effect on yeast performance
[3]; 0 to 1200 ppm solvent
  Ethanol production (inhibition): did not inhibit ethanol production
[3]; 1000 ppm solvent, 48 hours of exposure
  Yeast viability and stress (glycerol): does not appear to affect the viability of Yeast #1 or stress Yeast #1
